The assay deals with T1, TaG6PDH2 (TaG6PDH2-2D).
T1 construct: CDS in pET15b-sumo, E. coli BL21 (DE3), 6xHis and SUMO tags, about 75 kDa on gel; His-Trap FF purified fusion
As to the kind of experiment: G6PDH activity, double-reciprocal plot ([…]/V vs. […]/[G6P]). The conditions noted are these: purified His-SUMO fusion; assay conditions only by reference; read-out: KmG6P. It is filed as biochemical, Triticum aestivum.

The structures appear in SMILES notation.

Turning to `O=P(O)(O)OC[C@H]1OC(O)[C@H](O)[C@@H](O)[C@@H]1O` (stereo partly shown) [G6P, glucose-6-phosphate], the Km came out at 1980 µM.

The values above are taken from PMC9820208, “A Chloroplast-Localized Glucose-6-Phosphate Dehydrogenase Positively Regulates Stripe Rust Resistance in Wheat” (International Journal of Molecular Sciences, 2022).
